Source: ChEMBL document CHEMBL1201862, “PubChem BioAssay data set” (2004)
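All cell lines were grown in 96-well plates and treated with compound for 48 hours. GI50: concentration for 50% inhibition of growth.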 Active and inactive are the calls of the source. No stated cut-off is given here; in the data, active = GI50 up to about 1.1 µM and inactive = higher.

What was measured:
Test in all cases: NCI tumour cell line growth inhibition, 48 h
SF-295 = tested on: SF-295
OVCAR-4 = tested on: OVCAR-4
HCC 2998 = tested on: HCC 2998
NCI-H460 = tested on: NCI-H460
DMS-114 = tested on: DMS-114
LOX IMVI = tested on: LOX IMVI
SK-OV-3 = tested on: SK-OV-3
M19-MEL = tested on: M19-MEL
MOLT-4 = tested on: MOLT-4
CCRF-CEM = tested on: CCRF-CEM
SK-MEL-5 = tested on: SK-MEL-5
COLO 205 = tested on: COLO 205
RPMI-8226 = tested on: RPMI-8226
SF-539 = tested on: SF-539
A498 = tested on: A498
SNB-78 = tested on: SNB-78
DU-145 = tested on: DU-145

Measured: GI50

COc1cc(/C=C2\NC(=O)C(Cc3cc(OC)c(OC)c(C)c3OC)N(C(C)=O)C2=O)c(OC)c(C)c1OC (stereo unspecified)
inactive: SF-295 > 100 µM | OVCAR-4 > 100 µM | HCC 2998 > 100 µM | NCI-H460 43.4 µM | DMS-114 60.5 µM | LOX IMVI > 100 µM | SK-OV-3 > 100 µM | M19-MEL > 100 µM | MOLT-4 33.3 µM | CCRF-CEM 45.2 µM | SK-MEL-5 42.9 µM | COLO 205 54.7 µM | RPMI-8226 45.6 µM | SF-539 > 100 µM | A498 > 100 µM

Cc1cc2c(=O)cc(-c3ccc(F)cc3)oc2c(C(=O)O)c1C
inactive: SF-295 > 100 µM | OVCAR-4 > 100 µM | NCI-H460 > 100 µM | DMS-114 > 100 µM | LOX IMVI > 100 µM | SNB-78 > 100 µM | SK-OV-3 > 100 µM | M19-MEL > 100 µM | MOLT-4 > 100 µM | CCRF-CEM > 100 µM | SK-MEL-5 > 100 µM | COLO 205 > 100 µM | RPMI-8226 > 100 µM | SF-539 > 100 µM

CC1(C)C(=NN=C(N)N)C(C)(C)C1=NN=C(N)N
inactive: SF-295 > 100 µM | OVCAR-4 > 100 µM | HCC 2998 > 100 µM | NCI-H460 > 100 µM | DMS-114 > 100 µM | LOX IMVI > 100 µM | SNB-78 > 100 µM | SK-OV-3 > 100 µM | M19-MEL > 100 µM | MOLT-4 > 100 µM | SK-MEL-5 > 100 µM | COLO 205 > 100 µM | RPMI-8226 > 100 µM | SF-539 > 100 µM

Cc1cc(=O)c2c(O)cc3c(c2o1)CC=C(COC1OC(COC2OC(CO)C(O)C(O)C2O)C(O)C(O)C1O)CO3 (stereo unspecified)
inactive: SF-295 > 100 µM | OVCAR-4 > 100 µM | HCC 2998 > 100 µM | NCI-H460 > 100 µM | DMS-114 > 100 µM | LOX IMVI > 100 µM | SNB-78 > 100 µM | SK-OV-3 > 100 µM | M19-MEL > 100 µM | MOLT-4 > 100 µM | CCRF-CEM > 100 µM | SK-MEL-5 > 100 µM | COLO 205 > 100 µM | SF-539 > 100 µM

Cc1ccc(-c2nnc(-c3nn(-c4ccccc4)c4nc5ccccc5nc34)o2)cc1
inactive: SF-295 15.6 µM | OVCAR-4 3.01 µM | NCI-H460 9.04 µM | DMS-114 15.8 µM | LOX IMVI 15.7 µM | SNB-78 19.8 µM | SK-OV-3 10.8 µM | M19-MEL 22.1 µM | MOLT-4 16 µM | CCRF-CEM 3.59 µM | SK-MEL-5 10.9 µM | COLO 205 47.2 µM | RPMI-8226 8.38 µM | SF-539 3.03 µM

N#Cc1cn(-c2c3ccccc3nc3ccccc23)c(=O)[nH]c1=O
inactive: SF-295 5.83 µM | OVCAR-4 5.14 µM | NCI-H460 3.55 µM | DMS-114 8 µM | LOX IMVI 5.12 µM | SNB-78 13.5 µM | SK-OV-3 3.6 µM | M19-MEL 6.46 µM | MOLT-4 4.15 µM | CCRF-CEM 7.29 µM | COLO 205 5.43 µM | RPMI-8226 14 µM | SF-539 2.51 µM

O=C(c1ccccc1)N1CCc2c([nH]c3ccccc23)C1
inactive: SF-295 36.6 µM | OVCAR-4 53 µM | HCC 2998 94.4 µM | NCI-H460 41.7 µM | DMS-114 20.4 µM | LOX IMVI 88.1 µM | SK-OV-3 85.3 µM | M19-MEL 36.8 µM | MOLT-4 24.5 µM | CCRF-CEM 44.6 µM | SK-MEL-5 20.9 µM | COLO 205 19.2 µM | RPMI-8226 23.5 µM | SF-539 76.9 µM

C=C(CN(C)C)C(=O)c1ccc(C(=O)C(=C)CN(C)C)cc1
inactive: SF-295 > 100 µM | OVCAR-4 > 100 µM | HCC 2998 > 100 µM | DU-145 > 100 µM | NCI-H460 > 100 µM | LOX IMVI > 100 µM | SK-OV-3 > 100 µM | M19-MEL > 100 µM | MOLT-4 > 100 µM | CCRF-CEM > 100 µM | SK-MEL-5 > 100 µM | COLO 205 > 100 µM | RPMI-8226 > 100 µM | SF-539 > 100 µM | A498 > 100 µM

O=C(O)CCNS(=O)(=O)c1ccc([N+](=O)[O-])cc1
inactive: SF-295 > 100 µM | OVCAR-4 > 100 µM | HCC 2998 > 100 µM | NCI-H460 > 100 µM | LOX IMVI > 100 µM | SK-OV-3 > 100 µM | M19-MEL > 100 µM | MOLT-4 > 100 µM | CCRF-CEM > 100 µM | SK-MEL-5 > 100 µM | COLO 205 > 100 µM | RPMI-8226 > 100 µM | SF-539 > 100 µM | A498 > 100 µM

CC1(C)OC(=S)N(c2ccccc2)C12C=Cc1cc3ccccc3nc1S2 (stereo unspecified)
inactive: HCC 2998 > 100 µM | NCI-H460 84.9 µM | DMS-114 > 100 µM | LOX IMVI 59 µM | SK-OV-3 > 100 µM | M19-MEL 93.8 µM | MOLT-4 26.9 µM | CCRF-CEM 29.9 µM | SK-MEL-5 56.9 µM | COLO 205 84.3 µM | RPMI-8226 33.7 µM | SF-539 > 100 µM

CC(C)c1ccc(C2C3=C(N=C4SCC(=O)N42)C(=O)c2ccccc23)cc1 (stereo unspecified)
inactive: SF-295 82.8 µM | OVCAR-4 43.4 µM | HCC 2998 > 100 µM | NCI-H460 > 100 µM | DMS-114 53.5 µM | SK-OV-3 > 100 µM | M19-MEL 83.4 µM | MOLT-4 49.7 µM | CCRF-CEM 57.3 µM | SK-MEL-5 52.6 µM | COLO 205 > 100 µM | RPMI-8226 43.3 µM | SF-539 > 100 µM | A498 > 100 µM

CN1C2C=C(c3ccccc3)CC1CC2 (stereo unspecified)
inactive: SF-295 > 100 µM | HCC 2998 > 100 µM | NCI-H460 > 100 µM | LOX IMVI > 100 µM | SK-OV-3 > 100 µM | M19-MEL > 100 µM | MOLT-4 > 100 µM | CCRF-CEM > 100 µM | SK-MEL-5 > 100 µM | COLO 205 > 100 µM | RPMI-8226 > 100 µM | SF-539 > 100 µM | A498 > 100 µM

CCOc1cccc2ccc[n+](CC)c12
inactive: SF-295 45.7 µM | OVCAR-4 55.1 µM | HCC 2998 > 100 µM | NCI-H460 75.7 µM | DMS-114 32.7 µM | LOX IMVI 91.6 µM | SK-OV-3 > 100 µM | M19-MEL 41 µM | MOLT-4 > 100 µM | CCRF-CEM 55.8 µM | SK-MEL-5 45.5 µM | COLO 205 40.8 µM | RPMI-8226 > 100 µM | SF-539 > 100 µM

O=C(O)CSc1nnc(Cc2ccccc2)[nH]1
inactive: SF-295 > 100 µM | OVCAR-4 > 100 µM | HCC 2998 > 100 µM | NCI-H460 > 100 µM | DMS-114 > 100 µM | LOX IMVI > 100 µM | SNB-78 > 100 µM | SK-OV-3 > 100 µM | M19-MEL > 100 µM | MOLT-4 > 100 µM | CCRF-CEM > 100 µM | SK-MEL-5 > 100 µM | RPMI-8226 > 100 µM | SF-539 > 100 µM

N#CC(c1ccc(Cl)cc1)c1cccc(C(C#N)c2ccc(Cl)cc2)n1 (stereo unspecified)
inactive: SF-295 8.43 µM | OVCAR-4 32.6 µM | HCC 2998 37.4 µM | NCI-H460 23.1 µM | SNB-78 20.7 µM | SK-OV-3 47.4 µM | M19-MEL 19.6 µM | MOLT-4 8.02 µM | CCRF-CEM 25.9 µM | COLO 205 14.4 µM | RPMI-8226 82 µM | A498 2.31 µM

Nc1ccc(C(=O)NN2C(=O)C(Cl)C2c2ccccc2Cl)cc1 (stereo unspecified)
inactive: SF-295 2.95 µM | OVCAR-4 13.8 µM | HCC 2998 16.5 µM | NCI-H460 4.45 µM | DMS-114 5.48 µM | LOX IMVI 1.41 µM | SNB-78 15.7 µM | SK-OV-3 16.1 µM | M19-MEL 7.94 µM | MOLT-4 1.59 µM | CCRF-CEM 1.81 µM | SK-MEL-5 16 µM | COLO 205 14.6 µM | RPMI-8226 6.25 µM | SF-539 7.93 µM

CNS(=O)(=O)NN(C)S(=O)(=O)c1ccc(OC)cc1
inactive: SF-295 > 100 µM | OVCAR-4 > 100 µM | HCC 2998 > 100 µM | DMS-114 > 100 µM | LOX IMVI 91.8 µM | M19-MEL > 100 µM | MOLT-4 > 100 µM | CCRF-CEM > 100 µM | SK-MEL-5 > 100 µM | COLO 205 > 100 µM | RPMI-8226 > 100 µM | SF-539 > 100 µM | A498 > 100 µM

C[C@@]12CCCC(=O)N1[C@@H](CO)C(c1ccccc1)O2 (stereo partly specified)
inactive: SF-295 > 100 µM | OVCAR-4 > 100 µM | NCI-H460 > 100 µM | DMS-114 > 100 µM | LOX IMVI > 100 µM | SNB-78 > 100 µM | M19-MEL > 100 µM | SK-MEL-5 > 100 µM | COLO 205 > 100 µM | RPMI-8226 > 100 µM | SF-539 > 100 µM | A498 > 100 µM

C[C@@H](c1ccccc1)N(CC#N)C1CCC[C@H]1O (stereo partly specified)
inactive: SF-295 > 100 µM | OVCAR-4 > 100 µM | HCC 2998 > 100 µM | NCI-H460 > 100 µM | LOX IMVI > 100 µM | SNB-78 > 100 µM | SK-OV-3 > 100 µM | M19-MEL > 100 µM | MOLT-4 > 100 µM | CCRF-CEM > 100 µM | SK-MEL-5 > 100 µM | COLO 205 > 100 µM | RPMI-8226 > 100 µM | SF-539 > 100 µM | A498 > 100 µM

Cn1cnc([N+](=O)[O-])c1SC1=NCCS1
inactive: SF-295 > 100 µM | OVCAR-4 89.9 µM | HCC 2998 > 100 µM | NCI-H460 > 100 µM | LOX IMVI 17.3 µM | SNB-78 42.9 µM | SK-OV-3 > 100 µM | M19-MEL 49.4 µM | MOLT-4 25.6 µM | CCRF-CEM 28.2 µM | SK-MEL-5 > 100 µM | COLO 205 70 µM | RPMI-8226 36.7 µM | SF-539 > 100 µM | A498 > 100 µM
